Here are results for one molecule from ChEMBL document CHEMBL5113538, “Discovery of Novel Allosteric EGFR L858R Inhibitors for the Treatment of Non-Small-Cell Lung Cancer as a Single Agent or in Combination with Osimertinib” (J Med Chem, 2022).

Data set [1] can be described thus: Tlast in CD1 mouse at 10 mg/kg, po administered as single dose measured after 24 hrs by LC-MS/MS analysis. The format is ADME, organism-based. Conditions: in vivo.
For data set [2], the target named is T1, D(2) dopamine receptor (Homo sapiens, UniProt P14416). Kind of data set: Inhibition of dopamine D2 receptor (unknown origin).
T1 sequence (P14416 whole entry): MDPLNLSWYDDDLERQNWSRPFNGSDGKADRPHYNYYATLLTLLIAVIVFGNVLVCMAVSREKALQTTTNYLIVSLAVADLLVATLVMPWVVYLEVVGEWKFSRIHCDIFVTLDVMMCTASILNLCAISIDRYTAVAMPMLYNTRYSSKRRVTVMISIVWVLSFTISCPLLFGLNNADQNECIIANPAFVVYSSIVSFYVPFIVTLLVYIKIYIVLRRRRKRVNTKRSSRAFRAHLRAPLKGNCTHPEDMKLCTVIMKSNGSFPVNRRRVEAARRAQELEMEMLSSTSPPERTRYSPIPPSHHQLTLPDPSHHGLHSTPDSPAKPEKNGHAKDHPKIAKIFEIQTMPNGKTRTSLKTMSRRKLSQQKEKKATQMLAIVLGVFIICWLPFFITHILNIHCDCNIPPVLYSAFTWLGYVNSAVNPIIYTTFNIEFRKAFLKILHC
The target of data set [3] is T2, Muscarinic acetylcholine receptor M2 (Homo sapiens) (UniProt P08172).
T2 sequence (whole entry): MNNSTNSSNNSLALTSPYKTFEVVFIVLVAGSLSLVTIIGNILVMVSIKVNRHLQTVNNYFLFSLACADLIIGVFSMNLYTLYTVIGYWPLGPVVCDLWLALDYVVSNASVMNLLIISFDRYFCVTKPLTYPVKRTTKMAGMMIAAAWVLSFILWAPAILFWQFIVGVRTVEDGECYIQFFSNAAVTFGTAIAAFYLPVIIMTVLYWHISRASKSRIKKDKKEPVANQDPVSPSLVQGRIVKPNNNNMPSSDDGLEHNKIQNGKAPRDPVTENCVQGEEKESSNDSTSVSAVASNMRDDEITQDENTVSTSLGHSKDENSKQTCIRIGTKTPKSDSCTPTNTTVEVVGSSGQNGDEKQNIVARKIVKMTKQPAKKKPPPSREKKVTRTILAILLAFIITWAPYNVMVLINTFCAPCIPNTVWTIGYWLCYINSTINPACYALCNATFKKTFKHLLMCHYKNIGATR
The data set is described as follows: Inhibition of muscarinic M2 receptor (unknown origin) at 10 uM relative to control.

Data set [4] can be described thus: Oral bioavailability in CD1 mouse at 10 mg/kg administered as single dose measured after 24 hrs by LC-MS/MS analysis. The format is ADME, organism-based. To be noted: in vivo.
A short description of data set [5]: Cmax in CD1 mouse at 10 mg/kg, po administered as single dose measured after 24 hrs by LC-MS/MS analysis. To be noted: in vivo. It counts as ADME, organism-based. Set-up: dose 10 mg/kg, time 24 hrs, route po.
Data set [6] can be described thus: Toxicity in Balb/c nude mouse allografted with mouse BaF3 cells harboring EGFR L858R/C797S mutant assessed as tolerability at 10 mg/kg, po administered twice daily for 20 days. The format is organism-based. Conditions: in vivo, 480 h, time 20 day.
The subject of data set [7] is BaF3. Kind of data set: Antitumor activity against mouse BaF3 cells harboring EGFR L858R/C797S mutant allografted in Balb/c nude mouse assessed as in tumor growth inhibition at 10 mg/kg, po administered twice daily measured on day 20. The format is functional. Conditions: BaF3, 480 h, time 20 day, read-out: TGI.
Another data set relates to NCI-H1975. Kind of data set: Antitumor activity against human NCI-H1975 cells harboring EGFR L858R/T790M mutant xenografted in Balb/c nude mouse assessed as in tumor growth inhibition at 10 mg/kg, po administered twice daily measured after 14 days. The format is functional. Conditions: NCI-H1975, 336 h, time 14 day, read-out: TGI.
Data set [8] addresses Epidermal growth factor receptor (Homo sapiens, UniProt P00533, C797S/L858R/T790M).
The subject of the next data set is L-363. Kind of data set: Antiproliferative activity against human L-363 cells assessed as cell growth inhibition. The format is functional.
The target of another data set is T3, Glucocorticoid receptor (Homo sapiens, UniProt P04150).
T3 sequence (P04150 whole entry): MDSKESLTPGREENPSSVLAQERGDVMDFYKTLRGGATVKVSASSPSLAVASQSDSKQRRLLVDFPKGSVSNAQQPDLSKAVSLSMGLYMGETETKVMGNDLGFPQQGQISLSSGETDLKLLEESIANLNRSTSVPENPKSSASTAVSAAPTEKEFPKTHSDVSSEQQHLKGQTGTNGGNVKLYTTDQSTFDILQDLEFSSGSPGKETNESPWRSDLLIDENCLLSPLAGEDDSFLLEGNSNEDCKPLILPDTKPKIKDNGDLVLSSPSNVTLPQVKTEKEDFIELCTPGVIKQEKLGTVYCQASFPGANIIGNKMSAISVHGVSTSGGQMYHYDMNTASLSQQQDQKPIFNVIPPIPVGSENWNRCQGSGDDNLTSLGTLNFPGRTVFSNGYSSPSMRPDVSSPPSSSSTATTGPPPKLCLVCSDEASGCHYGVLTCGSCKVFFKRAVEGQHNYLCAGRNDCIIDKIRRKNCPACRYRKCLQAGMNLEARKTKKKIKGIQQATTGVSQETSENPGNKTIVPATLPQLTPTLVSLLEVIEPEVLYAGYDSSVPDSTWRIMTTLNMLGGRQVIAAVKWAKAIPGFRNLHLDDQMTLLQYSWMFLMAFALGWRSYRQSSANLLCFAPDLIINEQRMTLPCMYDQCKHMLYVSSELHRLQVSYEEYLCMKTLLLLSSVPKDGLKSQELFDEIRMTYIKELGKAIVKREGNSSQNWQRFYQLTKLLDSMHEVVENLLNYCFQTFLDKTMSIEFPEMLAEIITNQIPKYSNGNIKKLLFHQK
Kind of data set: Inhibition of glucocorticoid receptor (unknown origin).

Data set [9] can be described thus: AUC(0 to t) in CD1 mouse at 10 mg/kg, po administered as single dose measured after 24 hrs by LC-MS/MS analysis. To be noted: in vivo. The format is ADME, organism-based. Set-up: time 24 hrs, dose 10 mg/kg, route po.
Data set [10] concerns the target T4, Glucocorticoid receptor (Homo sapiens) (UniProt P04150).
T4 sequence (whole entry): T3 sequence (P04150 whole entry)
The data set is described as follows: Inhibition of glucocorticoid receptor (unknown origin) at 10 uM relative to control.

Data set [11] in a line: Tmax in CD1 mouse at 10 mg/kg, po administered as single dose measured after 24 hrs by LC-MS/MS analysis. The format is ADME, organism-based. Conditions: in vivo.
Data set [12] deals with Angiotensin-converting enzyme (Homo sapiens, UniProt P12821). Kind of data set: Inhibition of angiotensin-converting enzyme (unknown origin).
Chain of Angiotensin-converting enzyme (P12821 whole entry): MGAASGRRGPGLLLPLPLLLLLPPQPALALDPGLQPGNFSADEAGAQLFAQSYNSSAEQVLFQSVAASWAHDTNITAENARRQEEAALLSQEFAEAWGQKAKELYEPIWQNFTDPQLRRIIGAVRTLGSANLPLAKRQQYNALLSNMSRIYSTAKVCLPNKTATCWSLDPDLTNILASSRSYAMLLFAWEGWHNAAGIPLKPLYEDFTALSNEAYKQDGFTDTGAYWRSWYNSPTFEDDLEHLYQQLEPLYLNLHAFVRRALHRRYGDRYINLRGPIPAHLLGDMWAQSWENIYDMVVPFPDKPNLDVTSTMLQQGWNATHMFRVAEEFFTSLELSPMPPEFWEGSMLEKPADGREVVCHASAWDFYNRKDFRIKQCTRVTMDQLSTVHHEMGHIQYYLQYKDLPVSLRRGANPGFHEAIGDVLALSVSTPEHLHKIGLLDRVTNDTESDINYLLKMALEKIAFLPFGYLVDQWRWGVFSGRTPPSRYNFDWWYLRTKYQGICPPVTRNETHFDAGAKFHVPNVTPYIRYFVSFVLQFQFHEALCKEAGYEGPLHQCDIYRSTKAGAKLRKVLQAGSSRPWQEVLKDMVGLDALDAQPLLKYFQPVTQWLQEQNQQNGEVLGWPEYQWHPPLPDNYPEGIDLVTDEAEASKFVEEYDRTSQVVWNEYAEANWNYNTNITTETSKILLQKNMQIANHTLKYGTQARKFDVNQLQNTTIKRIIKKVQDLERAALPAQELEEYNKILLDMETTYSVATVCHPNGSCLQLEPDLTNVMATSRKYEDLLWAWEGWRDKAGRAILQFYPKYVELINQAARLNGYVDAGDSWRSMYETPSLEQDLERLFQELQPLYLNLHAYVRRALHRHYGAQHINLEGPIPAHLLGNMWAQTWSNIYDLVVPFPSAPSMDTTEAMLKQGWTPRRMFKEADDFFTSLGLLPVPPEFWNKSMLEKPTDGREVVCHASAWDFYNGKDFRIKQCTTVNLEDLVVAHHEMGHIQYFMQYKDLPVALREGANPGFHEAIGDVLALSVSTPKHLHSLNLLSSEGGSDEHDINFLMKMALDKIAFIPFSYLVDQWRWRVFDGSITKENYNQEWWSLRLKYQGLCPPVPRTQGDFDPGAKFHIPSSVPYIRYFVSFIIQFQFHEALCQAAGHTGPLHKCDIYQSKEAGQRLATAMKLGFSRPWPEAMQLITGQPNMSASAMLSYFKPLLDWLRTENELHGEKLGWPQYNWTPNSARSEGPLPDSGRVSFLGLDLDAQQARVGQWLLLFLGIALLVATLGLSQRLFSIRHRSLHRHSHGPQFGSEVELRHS
Data set [13] deals with BaF3. The data set is described as follows: Cytotoxicity against mouse BaF3 cells expressing EGFR L858R/T790M/C797S mutant assessed as reduction in cell viability measured after 72 hrs by cell titre glo luminescence assay. It counts as functional, cell-based. Conditions: BaF3, 72 h.
A short description of data set [14]: Tlast in CD1 mouse at 1 mg/kg, iv administered as single dose measured after 24 hrs by LC-MS/MS analysis. It counts as ADME, organism-based. To be noted: in vivo.
Data set [15] concerns the target T1, D(2) dopamine receptor. The data set is described as follows: Inhibition of dopamine D2 receptor (unknown origin) at 10 uM relative to control.
Data set [16] has as its system BaF3. Kind of data set: Antitumor activity against mouse BaF3 cells harboring EGFR L858R/C797S mutant allografted in Balb/c nude mouse assessed as in tumor growth inhibition at 10 mg/kg, po administered twice daily measured after 6 days. Conditions: BaF3, 144 h, time 6 day, read-out: TGI. The format is functional.
The target of a further data set is T5, Adenosine receptor A3 (Homo sapiens, UniProt P0DMS8).
T5 sequence (P0DMS8 whole entry): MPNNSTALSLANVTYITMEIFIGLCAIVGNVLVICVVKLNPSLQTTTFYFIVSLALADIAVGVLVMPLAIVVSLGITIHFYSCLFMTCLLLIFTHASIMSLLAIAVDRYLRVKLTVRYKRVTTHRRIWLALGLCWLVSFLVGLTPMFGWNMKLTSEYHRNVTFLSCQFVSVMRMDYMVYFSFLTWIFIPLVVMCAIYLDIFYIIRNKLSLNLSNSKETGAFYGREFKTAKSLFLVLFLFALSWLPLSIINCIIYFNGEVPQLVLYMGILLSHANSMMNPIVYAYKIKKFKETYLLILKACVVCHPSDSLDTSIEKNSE
Kind of data set: Inhibition of adenosine A3 receptor (unknown origin).

Another data set deals with SU-DHL-6. The data set is described as follows: Antiproliferative activity against human SU-DHL-6 cells assessed as cell growth inhibition. It counts as functional.

Chain of Epidermal growth factor receptor (P00533 25-1210 T790M/C797S/L858R limits assumed): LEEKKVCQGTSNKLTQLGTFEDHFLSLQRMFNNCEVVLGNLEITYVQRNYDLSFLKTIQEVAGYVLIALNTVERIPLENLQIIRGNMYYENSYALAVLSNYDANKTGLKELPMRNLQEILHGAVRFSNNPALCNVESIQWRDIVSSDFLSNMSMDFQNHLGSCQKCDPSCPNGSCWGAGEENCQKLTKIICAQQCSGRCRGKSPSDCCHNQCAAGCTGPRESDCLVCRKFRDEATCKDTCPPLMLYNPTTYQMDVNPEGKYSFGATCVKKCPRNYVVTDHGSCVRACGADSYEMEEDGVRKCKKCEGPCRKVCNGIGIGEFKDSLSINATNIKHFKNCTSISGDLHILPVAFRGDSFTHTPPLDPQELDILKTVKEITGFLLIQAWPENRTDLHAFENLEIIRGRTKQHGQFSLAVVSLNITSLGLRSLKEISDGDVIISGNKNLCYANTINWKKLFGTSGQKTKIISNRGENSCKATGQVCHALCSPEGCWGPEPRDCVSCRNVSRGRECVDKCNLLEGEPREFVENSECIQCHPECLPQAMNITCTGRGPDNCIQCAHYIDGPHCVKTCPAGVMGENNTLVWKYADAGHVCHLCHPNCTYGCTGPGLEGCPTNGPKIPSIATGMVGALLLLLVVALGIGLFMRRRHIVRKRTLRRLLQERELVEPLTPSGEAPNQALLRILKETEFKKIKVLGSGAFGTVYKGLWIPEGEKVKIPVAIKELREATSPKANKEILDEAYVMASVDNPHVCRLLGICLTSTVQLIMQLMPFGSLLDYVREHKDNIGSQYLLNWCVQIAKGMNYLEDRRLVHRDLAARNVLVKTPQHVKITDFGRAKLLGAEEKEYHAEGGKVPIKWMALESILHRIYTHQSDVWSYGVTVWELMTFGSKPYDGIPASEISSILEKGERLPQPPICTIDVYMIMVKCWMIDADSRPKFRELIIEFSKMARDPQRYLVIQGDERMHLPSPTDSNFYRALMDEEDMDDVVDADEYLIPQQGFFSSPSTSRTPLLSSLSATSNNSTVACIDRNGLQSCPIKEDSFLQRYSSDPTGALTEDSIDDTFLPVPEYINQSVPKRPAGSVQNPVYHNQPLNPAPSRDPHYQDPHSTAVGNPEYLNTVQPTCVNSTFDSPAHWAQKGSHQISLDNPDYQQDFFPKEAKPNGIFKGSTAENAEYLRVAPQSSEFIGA

Consider `Cc1c(C#Cc2ccc(CN3CCC(CO)CC3)cc2)cc(C(F)F)c2cn(C(C(=O)Nc3nccs3)c3ncn4c3CCC43CC3)nc12` (stereo unspecified), for which the Tlast in data set [1] and in data set [14] was 24 h throughout. The IC50 against D(2) dopamine receptor [2] was 1000 nM; in data set [8] it was 2 nM; against Glucocorticoid receptor, 3200 nM; in data set [12], over 3000 nM; in the data set on BaF3 [13] it was 1 nM; on Adenosine receptor A3, 200 nM. Also, the inhibition turned out to be 91% in data set [3], 90% in data set [10] and 98% at D(2) dopamine receptor [15]. Further, in [4], the bioavailability came out at 22%. The molecule also had a maximum concentration (Cmax) in data set [5] of 135 ng/mL. Further, in [6], the Activity entry is on record as “Non-Toxic”. In addition, the inhibition in vivo at 10 mg/kg in the data set with BaF3 [7] amounted to 70%; in the data set with NCI-H1975, 69%; in the data set on BaF3 [16] it was 84%. The GI50 came out at 1320 nM in the data set with L-363 and 1460 nM in the data set on SU-DHL-6. The area under the curve AUC(0-t) at 24 h in data set [9] was determined as 1790 ng·h/mL. The Tmax in data set [11] came to 5 h.
